Measured values reported in PMC4176827 (Molecular and biochemical parasitology, 2014).

How the values were obtained:
CpDHS [1] = molecular target: T1, CpDHS (Cryptosporidium parvum, UniProt A3FQA5); test: radiometric deoxyhypusine synthase assay; assay type: biochemical; settings: read-out: % inhibition at 1 μM
T1 sequence (A3FQA5 1-362): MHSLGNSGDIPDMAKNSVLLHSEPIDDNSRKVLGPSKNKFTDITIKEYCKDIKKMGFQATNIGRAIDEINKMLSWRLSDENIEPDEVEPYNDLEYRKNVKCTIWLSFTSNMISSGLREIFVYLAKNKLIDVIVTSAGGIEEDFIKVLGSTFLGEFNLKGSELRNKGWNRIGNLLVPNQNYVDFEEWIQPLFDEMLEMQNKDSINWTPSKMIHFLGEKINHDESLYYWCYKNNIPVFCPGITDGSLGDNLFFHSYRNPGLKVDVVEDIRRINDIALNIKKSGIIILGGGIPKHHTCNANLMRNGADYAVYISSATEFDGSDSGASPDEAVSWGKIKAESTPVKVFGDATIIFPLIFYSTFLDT

CpDHS [2] = molecular target: T1, CpDHS; test: fluorescence of enzyme-bound NADH; assay type: biochemical; settings: 100 µM spermidine, no eIF5A, 0.2 M glycine buffer pH 9.2

| SMILES | inhibition at 1 µM (CpDHS [1]) [%] | fluorescence of enzyme-bound NADH (excitation 340 nm, emission 441 nm) (CpDHS [2]) |
| --- | --- | --- |
| N=C(N)NCCCCCCCN [GC7, N^1-guanyl-1,7-diaminoheptane] | > 90 |  |
| NC(=O)c1ccc[n+]([C@@H]2O[C@H](COP(=O)(O)OP(=O)(O)OC[C@H]3O[C@@H](n4cnc5c(N)ncnc54)[C@H](O)[C@@H]3O)[C@@H](O)[C@H]2O)c1 [NAD^+] |  | both spermidine and NAD^+ are required for NADH fluorescence |
